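Grown in 96-well plates, cells were treated for 48 hours with each compound at five concentrations. Insufficient inhibition: endpoint recorded as highest concentration tested. The concentration for 50% growth inhibition is given as GI50. TGI denotes the concentration required for complete inhibition of growth.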
Tests used:
Assay in all cases: inhibition of tumour cell growth, NCI panel, 48 h
786-0 renal = tested on: 786-0 renal
A498 renal = tested on: A498 renal
A549 NSCLC = tested on: A549 NSCLC
ACHN renal = tested on: ACHN renal
BT-549 breast = tested on: BT-549 breast
COLO 205 colon = tested on: COLO 205 colon
DU-145 prostate = tested on: DU-145 prostate
EKVX NSCLC = tested on: EKVX NSCLC
HCC-2998 colon = tested on: HCC-2998 colon
HCT-116 colon = tested on: HCT-116 colon
HCT-15 colon = tested on: HCT-15 colon
HOP-62 NSCLC = tested on: HOP-62 NSCLC
HOP-92 NSCLC = tested on: HOP-92 NSCLC
HS 578T breast = tested on: HS 578T breast
HT29 colon = tested on: HT29 colon
IGROV1 ovarian = tested on: IGROV1 ovarian
KM12 colon = tested on: KM12 colon
M14 melanoma = tested on: M14 melanoma
MCF7 breast = tested on: MCF7 breast
MDA-MB-231 breast = tested on: MDA-MB-231 breast
MDA-MB-435 = tested on: MDA-MB-435
MDA-N = tested on: MDA-N
MOLT-4 leukemia = tested on: MOLT-4 leukemia
NCI-H226 lung = tested on: NCI-H226 lung
NCI-H23 lung = tested on: NCI-H23 lung
NCI-H460 lung = tested on: NCI-H460 lung
NCI/ADR-RES ovarian = tested on: NCI/ADR-RES ovarian
OVCAR-3 ovarian = tested on: OVCAR-3 ovarian
OVCAR-4 ovarian = tested on: OVCAR-4 ovarian
OVCAR-5 ovarian = tested on: OVCAR-5 ovarian
OVCAR-8 ovarian = tested on: OVCAR-8 ovarian
RPMI-8226 leukemia = tested on: RPMI-8226 leukemia
RXF 393 renal = tested on: RXF 393 renal
SF-268 CNS = tested on: SF-268 CNS
SF-295 CNS = tested on: SF-295 CNS
SF-539 CNS = tested on: SF-539 CNS
SK-MEL-2 melanoma = tested on: SK-MEL-2 melanoma
SK-MEL-28 melanoma = tested on: SK-MEL-28 melanoma
SK-MEL-5 melanoma = tested on: SK-MEL-5 melanoma
SK-OV-3 ovarian = tested on: SK-OV-3 ovarian
SN12C renal = tested on: SN12C renal
SNB-19 CNS = tested on: SNB-19 CNS
SNB-75 CNS = tested on: SNB-75 CNS
SW-620 colon = tested on: SW-620 colon
T-47D breast = tested on: T-47D breast
TK-10 renal = tested on: TK-10 renal
U251 CNS = tested on: U251 CNS
UACC-257 melanoma = tested on: UACC-257 melanoma
UACC-62 melanoma = tested on: UACC-62 melanoma
UO-31 renal = tested on: UO-31 renal
CAKI-1 renal = tested on: CAKI-1 renal
CCRF-CEM leukemia = tested on: CCRF-CEM leukemia
HL-60(TB) leukemia = tested on: HL-60(TB) leukemia
K-562 leukemia = tested on: K-562 leukemia
LOX IMVI melanoma = tested on: LOX IMVI melanoma
MALME-3M melanoma = tested on: MALME-3M melanoma
NCI-H522 lung = tested on: NCI-H522 lung
PC-3 prostate = tested on: PC-3 prostate
SR leukemia = tested on: SR leukemia

O=c1cc(/C=C/c2ccccc2)[nH]c2cc3c(cc12)OCO3
TGI (786-0 renal): 12.7 µM
TGI (A498 renal): 9.87 µM
TGI (A549 NSCLC): 21.4 µM
TGI (ACHN renal): 28.3 µM
TGI (BT-549 breast): 22 µM
TGI (COLO 205 colon): 6.43 µM
TGI (DU-145 prostate): > 100 µM
TGI (EKVX NSCLC): 25 µM
TGI (HCC-2998 colon): 7.47 µM
TGI (HCT-116 colon): 13.4 µM
TGI (HCT-15 colon): 8.23 µM
TGI (HOP-62 NSCLC): 14.5 µM
TGI (HOP-92 NSCLC): 14.8 µM
TGI (HS 578T breast): 8.75 µM
TGI (HT29 colon): 5.58 µM
TGI (IGROV1 ovarian): 19.8 µM
TGI (KM12 colon): 17.7 µM
TGI (M14 melanoma): 17.1 µM
TGI (MCF7 breast): 21.5 µM
TGI (MDA-MB-231 breast): 9.18 µM
TGI (MDA-MB-435): 4.29 µM
TGI (MDA-N): 6.23 µM
TGI (MOLT-4 leukemia): 13.7 µM
GI50 (NCI-H226 lung): 2.91 µM
TGI (NCI-H226 lung): 10.8 µM
TGI (NCI-H23 lung): 13.3 µM
TGI (NCI-H460 lung): 10.6 µM
TGI (NCI/ADR-RES ovarian): 5.38 µM
GI50 (OVCAR-3 ovarian): 2.22 µM
TGI (OVCAR-3 ovarian): 5.82 µM
TGI (OVCAR-4 ovarian): 30.2 µM
TGI (OVCAR-5 ovarian): 14.2 µM
TGI (OVCAR-8 ovarian): 19.9 µM
TGI (RPMI-8226 leukemia): 3.18 µM
GI50 (RXF 393 renal): 4.27 µM
TGI (RXF 393 renal): 22 µM
GI50 (SF-268 CNS): 7.12 µM
TGI (SF-268 CNS): 30.4 µM
GI50 (SF-295 CNS): 3 µM
TGI (SF-295 CNS): 13.7 µM
TGI (SF-539 CNS): 4.69 µM
TGI (SK-MEL-2 melanoma): 9.11 µM
TGI (SK-MEL-28 melanoma): 34.9 µM
GI50 (SK-MEL-5 melanoma): 2.17 µM
TGI (SK-MEL-5 melanoma): 12.3 µM
TGI (SK-OV-3 ovarian): 15.9 µM
TGI (SN12C renal): 23.9 µM
TGI (SNB-19 CNS): 13.4 µM
TGI (SNB-75 CNS): 40.2 µM
TGI (SW-620 colon): 19.2 µM
TGI (T-47D breast): 17.3 µM
TGI (TK-10 renal): 29.4 µM
TGI (U251 CNS): 7.18 µM
TGI (UACC-257 melanoma): 97.7 µM
TGI (UACC-62 melanoma): 10.1 µM
TGI (UO-31 renal): 20.9 µM

O=c1[nH]nc(Cc2ccccc2)n1/N=C/c1ccncc1
TGI (786-0 renal): > 100 µM
TGI (A498 renal): > 100 µM
TGI (A549 NSCLC): > 100 µM
TGI (ACHN renal): > 100 µM
TGI (BT-549 breast): > 100 µM
TGI (CAKI-1 renal): > 100 µM
TGI (CCRF-CEM leukemia): > 100 µM
TGI (COLO 205 colon): > 100 µM
TGI (DU-145 prostate): > 100 µM
TGI (EKVX NSCLC): > 100 µM
TGI (HCC-2998 colon): > 100 µM
TGI (HCT-116 colon): > 100 µM
TGI (HCT-15 colon): > 100 µM
TGI (HL-60(TB) leukemia): > 100 µM
TGI (HOP-62 NSCLC): > 100 µM
TGI (HOP-92 NSCLC): > 100 µM
TGI (HS 578T breast): > 100 µM
TGI (HT29 colon): > 100 µM
TGI (IGROV1 ovarian): > 100 µM
TGI (K-562 leukemia): > 100 µM
TGI (KM12 colon): > 100 µM
TGI (LOX IMVI melanoma): > 100 µM
TGI (M14 melanoma): > 100 µM
TGI (MALME-3M melanoma): > 100 µM
TGI (MCF7 breast): > 100 µM
TGI (MDA-MB-231 breast): > 100 µM
TGI (MDA-MB-435): > 100 µM
TGI (MDA-N): > 100 µM
TGI (MOLT-4 leukemia): > 100 µM
TGI (NCI-H226 lung): > 100 µM
TGI (NCI-H23 lung): > 100 µM
TGI (NCI-H460 lung): > 100 µM
TGI (NCI-H522 lung): > 100 µM
TGI (NCI/ADR-RES ovarian): > 100 µM
TGI (OVCAR-3 ovarian): > 100 µM
TGI (OVCAR-4 ovarian): > 100 µM
TGI (OVCAR-5 ovarian): > 100 µM
TGI (OVCAR-8 ovarian): > 100 µM
TGI (PC-3 prostate): > 100 µM
TGI (RPMI-8226 leukemia): > 100 µM
TGI (RXF 393 renal): > 100 µM
TGI (SF-268 CNS): > 100 µM
TGI (SF-295 CNS): > 100 µM
TGI (SF-539 CNS): > 100 µM
TGI (SK-MEL-28 melanoma): > 100 µM
TGI (SK-MEL-5 melanoma): > 100 µM
TGI (SN12C renal): > 100 µM
TGI (SNB-19 CNS): > 100 µM
TGI (SNB-75 CNS): > 100 µM
TGI (SR leukemia): > 100 µM
TGI (SW-620 colon): > 100 µM
TGI (T-47D breast): > 100 µM
TGI (TK-10 renal): > 100 µM
TGI (U251 CNS): > 100 µM
TGI (UACC-257 melanoma): > 100 µM
TGI (UO-31 renal): > 100 µM

Reference: PubChem BioAssay (NCI)
